# Data taken from BindingDB's records for doi:10.7270/Q2959G0B (Nmmlsc, 2009).
# Molecular target: Ras-related C3 botulinum toxin substrate 1 (Mus musculus, UniProt P63001)
# Experiment: blockers of fluorescent GTP loading onto wildtype Rac1 – biochemical, pyrazoline analogs, multiplex, flow cytometry, Ki, SAR follow-up (AID 2055)
# Conditions: not given
row,Structure (SMILES),EC50 [µM]
1,O=S(=O)(O)c1ccc(N2N=C(c3ccccc3)CC2c2ccccc2)cc1 (stereo not drawn) [UNM-0000305834],30

# Same assay, conditions: inactive by the depositor's call
row,Structure (SMILES),EC50 [µM]
1,COc1ccc(C2CC(c3ccccc3F)=NN2c2ccc(S(N)(=O)=O)cc2)cc1 (stereo not drawn) [UNM-0000306110],30
2,COc1ccc(C2CC(c3ccc(C)cc3)=NN2c2ccc(S(N)(=O)=O)cc2)cc1 (stereo not drawn),30
3,CN(C)c1ccc(C2CC(c3ccc(Cl)cc3)=NN2c2ccccc2)cc1 (stereo not drawn) [UNM-0000305847],30
4,COc1ccc(C2CC(c3cccc(Cl)c3)=NN2c2ccc(S(N)(=O)=O)cc2)cc1 (stereo not drawn) [UNM-0000306134],30
5,COc1ccc(C2=NN(c3ccccc3F)C(c3ccc(F)cc3)C2)cc1 (stereo not drawn) [UNM-0000305860],30
6,COc1ccc(C2CC(c3cccc(C(F)(F)F)c3)=NN2c2ccc(S(N)(=O)=O)cc2)cc1 (stereo not drawn),30
7,"COc1ccc(C2C[C-](c3ccccc3)N=[N+]2c2ccc([N+](=O)[O-])cc2)cc1 (stereo not drawn) [3-(4-methoxyphenyl)-2-(4-nitrophenyl)-5-phenyl-3,4-dihydropyrazole]",30
8,NS(=O)(=O)c1ccc(N2N=C(c3ccccc3)CC2c2ccc(Br)cc2)cc1 (stereo not drawn) [UNM-0000306160],30
9,Cc1ccccc1C1CC(c2ccccc2)=NN1c1ccc(S(N)(=O)=O)cc1 (stereo not drawn) [UNM-0000306148],30
10,"COc1ccc(C2CC(C)=NN2c2ccc(S(N)(=O)=O)cc2)cc1 (stereo not drawn) [4-[3-(4-methoxyphenyl)-5-methyl-3,4-dihydropyrazol-2-yl]benzenesulfonamide]",30
11,"COc1ccc(C2CC(C3CCCCC3)=NN2c2ccc(S(N)(=O)=O)cc2)cc1 (stereo not drawn) [4-[5-cyclohexyl-3-(4-methoxyphenyl)-3,4-dihydropyrazol-2-yl]benzenesulfonamide]",30
12,COc1ccc(C2CC(c3ccc(Br)cc3)=NN2c2ccccc2Cl)cc1 (stereo not drawn) [UNM-0000305832],30
13,COc1ccc(C2CC(c3ccccc3Br)=NN2c2ccc(S(N)(=O)=O)cc2)cc1 (stereo not drawn) [UNM-0000306112],30
14,COc1ccc(C2CC(c3ccccc3C)=NN2c2ccc(S(N)(=O)=O)cc2)cc1 (stereo not drawn) [UNM-0000306152],30
15,"COc1ccc(C2CC(c3ccccc3)=NN2c2ccc(Cl)c(C(=O)O)c2)cc1OC (stereo not drawn) [2-chloro-5-[3-(3,4-dimethoxyphenyl)-5-phenyl-3,4-dihydropyrazol-2-yl]benzoic acid]",30
16,O=C(O)c1ccc(N2N=C(c3ccccc3)CC2c2ccccc2)cc1 (stereo not drawn),54.7
17,Clc1ccc(N2N=C(c3ccccc3)CC2c2ccccc2)cc1 (stereo not drawn),30
18,COc1ccc(C2CC(c3cccs3)=NN2c2ccc(S(N)(=O)=O)cc2)cc1 (stereo not drawn) [KUC103438N],30
19,Cc1ccc(C2CC(c3ccccc3)=NN2c2ccc(S(N)(=O)=O)cc2)cc1 (stereo not drawn),30
20,COc1ccc(C2CC(c3ccccc3C(F)(F)F)=NN2c2ccc(S(N)(=O)=O)cc2)cc1 (stereo not drawn) [KUC103474N],30
21,COc1ccc(C2CC(c3cccc(Br)c3)=NN2c2ccc(S(N)(=O)=O)cc2)cc1 (stereo not drawn) [UNM-0000306113],30
22,"COc1ccc(C2=NN(c3ccc(S(N)(=O)=O)cc3)C(c3ccc(OC)cc3)C2)cc1 (stereo not drawn) [4-[3,5-bis(4-methoxyphenyl)-3,4-dihydropyrazol-2-yl]benzenesulfonamide]",30
23,Cc1cccc(N2N=C(c3ccccc3)CC2c2ccccc2)c1 (stereo not drawn) [UNM-0000305835],30

row,Structure (SMILES),EC50 [µM]
1,"CN(C)c1ccc(C2CC(c3ccccc3)=NN2c2ccccc2)cc1 (stereo not drawn) [4-(2,5-diphenyl-3,4-dihydropyrazol-3-yl)-N,N-dimethylaniline]",30
2,NS(=O)(=O)c1ccc(N2N=C(c3ccccc3)CC2c2cccc(Cl)c2)cc1 (stereo not drawn) [UNM-0000306161],30
3,Clc1cccc(N2N=C(c3ccccc3)CC2c2ccccc2)c1 (stereo not drawn),30
4,"Cc1ccccc1N1N=C(c2ccccc2)CC1c1ccc(N(C)C)cc1 (stereo not drawn) [N,N-dimethyl-4-[2-(2-methylphenyl)-5-phenyl-3,4-dihydropyrazol-3-yl]aniline]",30
5,CN(C)c1ccc(C2C[C-](c3ccccc3)N=[N+]2c2ccc([N+](=O)[O-])cc2)cc1 (stereo not drawn),20.4
6,"COc1ccc(C2CC(c3ccc(F)cc3)=NN2c2ccc(S(N)(=O)=O)cc2)cc1 (stereo not drawn) [4-[5-(4-fluorophenyl)-3-(4-methoxyphenyl)-3,4-dihydropyrazol-2-yl]benzenesulfonamide]",30
7,"Fc1ccccc1C1CC(c2ccc(Br)cc2)=NN1c1ccc(Br)cc1 (stereo not drawn) [2,5-bis(4-bromophenyl)-3-(2-fluorophenyl)-3,4-dihydropyrazole]",30
8,"O=S(=O)(c1ccc(N2N=C(c3ccc(Br)cc3)CC2c2ccccc2)cc1)C(F)F (stereo not drawn) [5-(4-bromophenyl)-2-[4-(difluoromethylsulfonyl)phenyl]-3-phenyl-3,4-dihydropyrazole]",30
9,NS(=O)(=O)c1ccc(N2N=C(c3ccccc3)CC2c2ccccc2Cl)cc1 (stereo not drawn) [KUC103446N],30
10,COc1ccc(C2CC(c3ccncc3)=NN2c2ccc(S(N)(=O)=O)cc2)cc1 (stereo not drawn),30
11,"NS(=O)(=O)c1ccc(N2N=C(c3ccccc3)CC2c2ccccc2Br)cc1 (stereo not drawn) [4-[3-(2-bromophenyl)-5-phenyl-3,4-dihydropyrazol-2-yl]benzenesulfonamide]",30
12,"COc1ccc(C2CC(c3ccc(F)cc3)=NN2c2cc(Cl)ccc2Cl)cc1 (stereo not drawn) [2-(2,5-dichlorophenyl)-5-(4-fluorophenyl)-3-(4-methoxyphenyl)-3,4-dihydropyrazole]",0.089
13,"O=[N+]([O-])c1cccc(C2C[C-](c3ccc(F)cc3)N=[N+]2c2ccccc2)c1 (stereo not drawn) [5-(4-fluorophenyl)-3-(3-nitrophenyl)-2-phenyl-3,4-dihydropyrazole]",30
14,COc1ccccc1N1N=C(c2ccccc2)CC1c1ccccc1 (stereo not drawn) [UNM-0000305855],30
15,Cc1onc(-c2ccccc2)c1-c1ccc(S(N)(=O)=O)cc1,30
16,COc1ccc(C2CC(c3ccccc3)=NN2c2ccc(S(N)(=O)=O)cc2)cc1OC (stereo not drawn) [UNM-0000305823],13.2
17,"NS(=O)(=O)c1ccc(N2N=C(c3ccccc3)CC2c2ccc(Cl)cc2)cc1 (stereo not drawn) [4-[3-(4-chlorophenyl)-5-phenyl-3,4-dihydropyrazol-2-yl]benzenesulfonamide]",30
18,COc1ccc(C2=NN(c3ccccc3)C(c3ccc(OC)c(OC)c3C(=O)O)C2)cc1 (stereo not drawn) [UNM-0000305848],30
19,"COc1ccc(C2CC(c3ccsc3)=NN2c2ccc(S(N)(=O)=O)cc2)cc1 (stereo not drawn) [4-[3-(4-methoxyphenyl)-5-thiophen-3-yl-3,4-dihydropyrazol-2-yl]benzenesulfonamide]",30
20,"COc1ccc(C2CC(c3cccc(F)c3)=NN2c2ccc(S(N)(=O)=O)cc2)cc1 (stereo not drawn) [4-[5-(3-fluorophenyl)-3-(4-methoxyphenyl)-3,4-dihydropyrazol-2-yl]benzenesulfonamide]",30
21,COc1ccc(C2CC(c3ccc(Br)cc3)=NN2c2ccc(S(N)(=O)=O)cc2)cc1 (stereo not drawn) [UNM-0000306138],30
22,Cc1ccccc1[N+]1=N[C-](c2ccccc2)CC1c1cccc([N+](=O)[O-])c1 (stereo not drawn) [UNM-0000305854],30
23,CC(=O)Oc1ccc(C2=NN(c3ccccc3)C(c3ccccc3)C2)cc1 (stereo not drawn),5.65

row,Structure (SMILES),EC50 [µM]
1,"COc1ccc(C2CC(c3ccccc3)=NN2c2cccc(S(N)(=O)=O)c2)cc1 (stereo not drawn) [3-[3-(4-methoxyphenyl)-5-phenyl-3,4-dihydropyrazol-2-yl]benzenesulfonamide]",30
2,"COc1ccc(C2CC(c3ccc(C(F)(F)F)cc3)=NN2c2ccc(S(N)(=O)=O)cc2)cc1 (stereo not drawn) [4-[3-(4-methoxyphenyl)-5-[4-(trifluoromethyl)phenyl]-3,4-dihydropyrazol-2-yl]benzenesulfonamide]",30
3,"NS(=O)(=O)c1ccc(N2N=C(c3ccc(Br)cc3)CC2c2ccc(F)cc2)cc1 (stereo not drawn) [4-[5-(4-bromophenyl)-3-(4-fluorophenyl)-3,4-dihydropyrazol-2-yl]benzenesulfonamide]",0.014
4,COc1ccc(C2CC(c3ccc(F)cc3)=NN2c2ccccc2)cc1OC (stereo not drawn) [UNM-0000305864],30
5,COc1ccc(C2CC(c3ccccc3)=NN2c2ccc(C(N)=O)cc2)cc1 (stereo not drawn) [UNM-0000305870],30
6,O=S(=O)(c1ccc(N2N=C(c3ccccc3)CC2c2ccccc2)cc1)C(F)F (stereo not drawn),30
7,NS(=O)(=O)c1ccc(N2N=C(c3ccc(Cl)cc3)CC2c2ccccc2)cc1 (stereo not drawn),30
8,"COc1ccc(C2CC(c3ccccc3Cl)=NN2c2ccc(S(N)(=O)=O)cc2)cc1 (stereo not drawn) [4-[5-(2-chlorophenyl)-3-(4-methoxyphenyl)-3,4-dihydropyrazol-2-yl]benzenesulfonamide]",30
9,FC(F)(F)c1cccc(N2N=C(c3ccc(Cl)cc3)CC2c2ccccc2Cl)c1 (stereo not drawn) [UNM-0000305859],30
10,"Fc1ccc(C2=NN(c3cccc(Br)c3)C(c3ccccc3)C2)cc1 (stereo not drawn) [2-(3-bromophenyl)-5-(4-fluorophenyl)-3-phenyl-3,4-dihydropyrazole]",30
11,"COc1ccc(C2=NN(c3cccc(F)c3)C(c3ccc(Cl)cc3)C2)cc1 (stereo not drawn) [3-(4-chlorophenyl)-2-(3-fluorophenyl)-5-(4-methoxyphenyl)-3,4-dihydropyrazole]",30
12,COc1ccc(C2CC(c3ccc(Cl)cc3)=NN2c2ccccc2)cc1OC (stereo not drawn) [UNM-0000305858],30
13,COc1ccc(C2=NN(c3ccccc3)C(c3ccc(Cl)cc3)C2)cc1 (stereo not drawn) [UNM-0000305833],30
14,"NS(=O)(=O)c1ccc(N2N=C(c3ccccc3)CC2c2ccccc2)cc1 (stereo not drawn) [4-(3,5-diphenyl-3,4-dihydropyrazol-2-yl)benzenesulfonamide]",30
15,COc1ccc(C2CC(c3ccc(Cl)cc3)=NN2c2ccc(S(N)(=O)=O)cc2)cc1 (stereo not drawn),30
16,CN(C)c1ccc(C2CC(c3ccc(F)cc3)=NN2c2ccccc2)cc1 (stereo not drawn) [UNM-0000305866],30
17,COc1ccc(C2CC(c3ccc(N(C)C)cc3)=NN2c2ccc(S(N)(=O)=O)cc2)cc1 (stereo not drawn) [KUC103422N],30
18,COc1ccc(C2CC(c3ccccc3)=NN2c2ccc(C(=O)O)cc2)cc1 (stereo not drawn) [UNM-0000306085],30
19,CN(C)c1ccc(C2CC(c3ccc(Br)cc3)=NN2c2ccccc2)cc1 (stereo not drawn) [UNM-0000305846],30
20,Cc1ccc(-c2cc(C(F)(F)F)nn2-c2ccc(S(N)(=O)=O)cc2)cc1 [Celecoxib],30
21,COc1ccc(C2CC(c3ccccc3OC)=NN2c2ccc(S(N)(=O)=O)cc2)cc1 (stereo not drawn),30
